The melting point is the temperature, or range, at which the solid turns liquid.

From US6861438B2, “Antiviral agents” (Pfizer, priority 2002, dated 2005) come the findings set out here.

As to `O=C(NCc1ccc(Cl)cc1)c1cnc2ccsc2c1O` [Example 1, N-(4-Chlorobenzyl)-7-hydroxythieno[3,2-b]pyridine-6-carboxamide], the melting point was 295 °C (dec.).
With `CCn1cc(C(=O)NCc2ccc(Cl)cc2)c(=O)c2sccc21` [Example 2, N-(4-Chlorobenzyl)-4-ethyl-7-oxo-4,7-dihydrothieno[3,2-b]pyridine-6-carboxamide], the melting point lay within 189 to 192 °C.
